Earlier results on 1 compound are cited in patent US7858334B2, “Degradation of hydrophobic ester pesticides and toxins” (priority 2002, dated 2010).

Molecules are shown by their SMILES.

Consider `CC1(C)C(C=C(Cl)Cl)C1C(=O)OCc1cccc(Oc2ccccc2)c1` (racemic) [permethrin, 3-phenoxybenzyl(1RS)-cis, trans-3-(2,2-dichlorovinyl)-2,2-dimethylcyclopropane carboxylate], for which the “published solubility in aqueous solution” value was 0.5 µM.
